Entries after “also recorded” stand apart in the source; their conditions may differ. Each block holds one compound with its values, some of them ahead of it. Non-standard residues stand in square brackets, D forms with d. Residues, ends and D or L forms follow the SMILES beside them. *: point of attachment. Sta = CC(C)C[C@H](N)[C@@H](O)CC(=O)O; Isovaleryl = CC(C)CC(=O)*
What was measured:
[1] = system: β-secretase endoprotease activity in chromaffin vesicle lysate; test: Protease inhibitors of β-secretase endoprotease activity in chromaffin vesicle lysate (Z*Val-Lys-Met-MCA cleavage, AMC fluorescence); type: biochemical, bovine; conditions: for % CONTROL: pH 5.5, with aminopeptidase M, activity as % of activity without inhibitor; for inhibition of β-secretase endoprotease activity in chromaffin vesicle lysate, in words: text summary of Table II
Method: (§1) The β-secretase endoprotease activity was identified by incubating the chromaffin vesicle lysate (2-10 μl of 10-20 mg protein/ml) with the Z★Val-Lys-Met-MCA substrate (100 μM final concentration) and detecting AMC fluorescence. The chromaffin vesicle lysate was prepared as described in Example I. The endoprotease activity was determined as a function of pH by varying the pH of the incubation solution between 3.0 to 8.0 in 0.5 pH increments. Citric acid, sodium phosphate, and Tris-HCl buffers (100 mM final concentration) were used to adjust the pH of the incubation solutions between 3.0 to 5.5, 6.0 to 7.5, and 8.0, respectively. Duplicate samples at each pH increment (100 μl each) were distributed among 22 wells in a covered microtiter well plate and incubated at 37° C. for 8 hours in a water bath.
As discussed above, endoprotease cleavage between the Met-MCA bond in the Z★Val-Lys-Met-MCA substrate produces fluorescent AMC, but endoprotease cleavage between the Lys-Met or Val-Lys bonds in that substrate produces non-fluorescent Lys-Met-MCA and Met-MCA peptides. To insure that the latter two endoprotease cleavages were detected, aminopeptidase M (20 μg/ml final concentration, BOEHRINGER […]) was added to each incubation solutions to produce fluorescent AMC from the Lys-Met-MCA and Met-MCA peptides. Prior to adding the aminopeptidase M, each incubation solution was adjusted to a pH 8.3 using Tris-HCl because aminopeptidase M functions at a basic pH. A second incubation at 37° C. for 1 hour in the water bath was conducted to complete the aminopeptidase M reaction.
Upon termination of that second incubation, AMC fluorescence was assayed using a fluorometer (IDEXX fluorometer, FCA Fluorescence Concentration Analyzer, cat. no. 10-105-2, BAXTER HEALTH CARE CORP., Mundelein, Ill.) at excitation and emission wavelengths of 365 and 450 nm, respectively. Standard AMC concentrations were also measured to quantitate relative fluorescence with the molar amount (pmol) of AMC generated by the secretase. The resulting AMC fluorescence reflects the endoprotease activity in cleaving either the Met-MCA, Lys-Met. and Val-Lys bonds in the Z★Val-Lys-Met-MCA substrate.
(§2) The effect of the reducing agent dithiothreitol (DTT) on β-secretase endoprotease activity was determined using the assay described in Example III. Briefly, the lysed vesicles were incubated with the substrate Z★Val-Lys-Met-MCA in the presence or absence of 1 mM DTT and the resulting fluorescence plotted as a function of pH. Both with and without DTT, β-secretase endoprotease activity was detected and in both cases that activity had pH optimum of about 4.0 to 6.0, which is consistent with the intravesicular pH of chromaffin vesicles.
The effect of the aminopeptidase M and the basic pH buffer used in the β-secretase endoprotease activity assay was determined. The assay was conducted as described in Example VIII with DTT. Three assays were conducted, one with aminopeptidase M in its basic pH buffer, another with the basic pH buffer but not aminopeptidase M, and a third without either the buffer or the aminopeptidase M. Briefly, the chromaffin vesicle lysate and the substrate Z★Val-Lys-Met-MCA were incubated for 30 minutes-at a specified pH and the resulting fluorescence measured. The aminopeptidase M in the basic pH buffer or:.that buffer alone (final concentration of 75 mM Tris-HCl pH 8.2) was added to the assay and incubated an additional 60 minutes at 37° C. […] The assay conducted with aminopeptidase M and its basic pH buffer and that of the control assay having just the basic pH buffer produced approximately the same amount of fluorescence.
The effect of various protease inhibitors on β-secretase endoprotease activity in the lysate was determined at the pH optimum 5.5 in the assay described in Example IX containing aminopeptidase M. Protease inhibitors specific for various protease classes were used. […]

[2] = molecular target: T1, Peak I β-secretase endoprotease activity (cathepsin L) (Bos taurus, UniProt P25975); test: Protease inhibitors of β-secretase endoprotease activity in Peak I; type: biochemical, bovine; conditions: for Peak I (%): % of control (no inhibitor); for inhibition of Peak I activity, in words: text summary of Table IV; for β-secretase activity of Peak I: inhibitor at 1 μM (Example XVI)
T1 construct: from tissue; host or cells: bovine adrenal medulla chromaffin vesicles; Con A then Sephacryl S200, Peak I
T1 sequence (P25975 118-334): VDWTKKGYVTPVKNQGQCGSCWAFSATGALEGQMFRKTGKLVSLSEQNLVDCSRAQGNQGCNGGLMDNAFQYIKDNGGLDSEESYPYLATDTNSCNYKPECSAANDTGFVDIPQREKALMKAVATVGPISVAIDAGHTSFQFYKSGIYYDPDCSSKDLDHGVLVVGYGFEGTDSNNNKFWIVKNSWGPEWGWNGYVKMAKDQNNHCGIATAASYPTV
Method: The effect of the aminopeptidase M and the basic pH buffer used in the β-secretase endoprotease activity assay was determined. […] Three assays were conducted, one with aminopeptidase M in its basic pH buffer, another with the basic pH buffer but not aminopeptidase M, and a third without either the buffer or the aminopeptidase M. Briefly, the chromaffin vesicle lysate and the substrate Z★Val-Lys-Met-MCA were incubated for 30 minutes-at a specified pH and the resulting fluorescence measured. The aminopeptidase M in the basic pH buffer or:.that buffer alone (final concentration of 75 mM Tris-HCl pH 8.2) was added to the assay and incubated an additional 60 minutes at 37° C.
The protease inhibitor was added to each assay at the start of the reaction at the appropriate concentration. The extent of inhibition was expressed as a percentage of the activity without the inhibitor (control).

[3] = molecular target: T2, Peak II β-secretase endoprotease activity (cathepsin B) (Bos taurus, UniProt P07688); test: Protease inhibitors of β-secretase endoprotease activity in Peak II; type: biochemical, bovine; conditions: for Peak II (%): % of control (no inhibitor); for inhibition of Peak II activity, in words: text summary of Table IV
T2 construct: from tissue; host or cells: bovine adrenal medulla chromaffin vesicles; Con A, Sephacryl S200 (Peak II), Mono Q (II-A, II-B)

[4] = system: cathepsin activity in brain; conditions: administered to animals; cited from earlier work
[5] = system: 27 kDa and 31 kDa cysteine protease bands of Peak I; test: 125I-DCG-04 affinity labeling of Peak I; type: binding, bovine; conditions: inhibitor 1 μM
Method: An aliquot of Peak I was incubated at room temperature with 125I-DCG-04 for 30 minutes, and the affinity labeled β-secretase was then subjected to one-dimensional SDS-PAGE followed by electrophoretic transfer of proteins to nitrocellulose membranes, and 125I-DCG-04 labeled proteins were detected with streptavidin-HRP, as described previously (Greenbaum et al. Chem. Biol. 7:569-81, 2000, Greenbaum et al., Chemistry and Biology 10, 1085-1094, 2002; Greenbaum et al., Mol. Cell. Proteomics, 1:60-68, 2002).
The 31 kDa band resembles the molecular weight of the cysteine protease cathepsin B (Barrett et al., “Handbook of Proteolytic Enzymes,” Pub. Academic Press, SanDiego, pp 609-617, 1998; and Greenbaum et al., Mol. Cell. Proteomics, 1:60-68, 2002). The selective cathepsin B inhibitor, CA-074, was used to determine whether the 27 kDa or 31 kDa bands were responsible for the β-secretase activity of Peak I (Yamamoto et al., J. Mol. Biol. 227:942-944, 1992; Gour-Salin et al., J. Med. Chem. 36:720-725, 1993; Bogyo et al., Chem Biol. 1:27-38, 2000).

[6] = system: β-secretase endoprotease activity in chromaffin vesicle lysate; test: Effect of reducing agents on β-secretase endoprotease activity in chromaffin vesicles; type: biochemical, bovine; conditions: 1 mM; lysed vesicles, Z*Val-Lys-Met-MCA
Method: as §1, §2

[7] = system: primary chromaffin cell cultures; test: Aβ-peptide secretion by chromaffin cells (RIA of Aβ1-40 in media); type: cell-based; conditions: 50 mM, 15 minutes
Method: Primary chromaffin cell cultures containing approximately 2 million cells in each culture were produced using established methods (Hook et al., ibid.; and Tezapsidis et al., ibid.). Exocytosis of the contents of the vesicles in such cells was induced by exposing the cells to KCl (50 mM) or nicotine (10 μM) for 15 minutes.

SMILES: CC(C)C[C@H](NC(=O)[C@@H](NC(=O)N[C@@H](Cc1ccccc1)C(=O)O)[C@@H]1CCN=C(N)N1)C(=O)N[C@H](C=O)Cc1ccccc1 [Chymostatin]
% CONTROL ([1]; inhibitor 10 μM): 11%
inhibition of β-secretase endoprotease activity in chromaffin vesicle lysate, in words [1]: greatly inhibited
Peak I (%) ([2]; inhibitor 10 μM): 0%
inhibition of Peak I activity, in words [2]: maximally inhibited
Peak II (%) ([3]; inhibitor 10 μM): 35%
inhibition of Peak II activity, in words [3]: maximally inhibited

SMILES: O=C(O)CN(CCN(CC(=O)O)CC(=O)O)CC(=O)O [EDTA, ethylenediaminetetraacetic acid]
% CONTROL ([1]; inhibitor 1 mM): 100%
Peak I (%) ([2]; inhibitor 1 mM): 99%
Peak II (%) ([3]; inhibitor 1 mM): 138%

SMILES: CC(C)CC(=O)N[C@H](C(=O)N[C@H](C(=O)N[C@@H](CC(C)C)[C@@H](O)CC(=O)N[C@@H](C)C(=O)N[C@@H](CC(C)C)[C@@H](O)CC(=O)O)C(C)C)C(C)C [Pepstatin A] (Isovaleryl-VV[Sta]A[Sta]-OH)
% CONTROL ([1]; inhibitor 10 μM): 78%
inhibition of β-secretase endoprotease activity in chromaffin vesicle lysate, in words [1]: slightly inhibited
Peak I (%) ([2]; inhibitor 100 μM): 85%
inhibition of Peak I activity, in words [2]: did not significantly inhibit; also recorded: slightly inhibited
Peak II (%) ([3]; inhibitor 100 μM): 132%
inhibition of Peak II activity, in words [3]: did not significantly inhibit; also recorded: increased the activity

SMILES: O=S(=O)(F)Cc1ccccc1 [PMSF, phenylmethylsulfonyl fluoride]
% CONTROL ([1]; inhibitor 100 μM): 58%
inhibition of β-secretase endoprotease activity in chromaffin vesicle lysate, in words [1]: significantly inhibited
inhibition of Peak I activity, in words [2]: did not significantly inhibit; also recorded: only slightly inhibited
inhibition of Peak II activity, in words [3]: did not significantly inhibit; also recorded: only slightly inhibited

SMILES: O=C(O)c1cc[c]([Hg][OH])cc1 [pHMB]
% CONTROL ([1]; inhibitor 1 mM): 35%
inhibition of β-secretase endoprotease activity in chromaffin vesicle lysate, in words [1]: inhibited
inhibition of β-secretase endoprotease activity in chromaffin vesicle lysate, in words ([1]; listed as PHMB): greatly inhibited
Peak I (%) ([2]; inhibitor 1 mM): 67%
inhibition of Peak I activity, in words [2]: slightly inhibited; also recorded: inhibited
Peak II (%) ([3]; inhibitor 1 mM): 68%
inhibition of Peak II activity, in words [3]: slightly inhibited; also recorded: inhibited

SMILES: CC(=O)N[C@@H](CC(C)C)C(=O)N[C@@H](CC(C)C)C(=O)N[C@H](C=O)CCCNC(=N)N [Leupeptin]
% CONTROL ([1]; inhibitor 100 μM): 0%
inhibition of β-secretase endoprotease activity in chromaffin vesicle lysate, in words [1]: completely inhibited
Peak I (%) ([2]; inhibitor 100 μM): 0%
inhibition of Peak I activity, in words [2]: maximally inhibited; also recorded: completely inhibited
Peak II (%) ([3]; inhibitor 100 μM): 0%
inhibition of Peak II activity, in words [3]: maximally inhibited; also recorded: completely inhibited

SMILES: [Cl-].[K+] [KCl, potassium chloride]
increase in the concentration of Aβ1-40 peptide in the media relative to control media [7]: approximately 350 fold

Now from value to compound, other results behind:

% CONTROL ([1]; inhibitor 10 μM): 0%
inhibition of β-secretase endoprotease activity in chromaffin vesicle lysate, in words [1]: completely inhibited
Peak I (%) ([2]; inhibitor 10 μM): 0%
β-secretase activity of Peak I [2]: completed inhibited
Peak II (%) ([3]; inhibitor 10 μM): 0%
SMILES: CC(C)CCNC(=O)[C@H](CC(C)C)NC(=O)[C@H]1O[C@@H]1C(=O)O [E64c]
inhibition of Peak I activity, in words [2]: maximally inhibited; also recorded: completely inhibited
inhibition of Peak II activity, in words [3]: maximally inhibited; also recorded: completely inhibited
cathepsin activity in brain [4]: effectively block

% CONTROL ([1]; inhibitor 1 mM): 99%
Peak I (%) ([2]; inhibitor 1 mM): 108%
Peak II (%) ([3]; inhibitor 1 mM): 142%
SMILES: O=C(O)CN(CCOCCOCCN(CC(=O)O)CC(=O)O)CC(=O)O [EGTA]

β-secretase activity of Peak I [2]: not affected
SMILES: CCCNC(=O)[C@H]1O[C@@H]1C(=O)N[C@H](C(=O)N1CCC[C@H]1C(=O)O)[C@@H](C)CC [CA-074]
125I-DCG-04 labeling of Peak I bands in the presence of the inhibitor [5]: labeling of only the 27 kDa band

Peak I (%) ([2]; inhibitor 500 μM): 31%
inhibition of Peak I activity, in words [2]: significantly inhibited
Peak II (%) ([3]; inhibitor 500 μM): 72%
inhibition of Peak II activity, in words [3]: only slightly inhibited
SMILES: c1cnc2c(c1)ccc1cccnc12 [1,10 Phenanthroline]

increase in the β-secretase endoprotease activity [6]: approximately 5 fold
SMILES: O[C@H](CS)[C@H](O)CS (racemic) [DTT, dithiothreitol]

— US20040248232A1, “Method for treating Alzheimer's dementia” (priority 2003, published 2004)
